Measurements reported in patent EP3271365B1, “BI[…] AGENTS CONTAINING THE CTI PHARMACOPHORE” (Pfizer Inc., priority 2015, dated 2016).

Legend:
Assay in all cases: Cytotoxicity assay for payloads (MTS cell viability)
Assay type in all cases: cell-based
HL60 (leukemia) = details: Homo sapiens, HL-60, 96 h, HL60 cells, incubated four days, read-out: Free Payload Potencies HL60 (IC50)
Experimental: (§1) Cancer cell lines were obtained from ATCC (Manassas, VA). N87 (human gastric carcinoma derived from metastatic liver site). HL60 (leukemia) and MDA-MB-361 DYT2 (human breast carcinoma MDA-MB-361) were grown in RPMI 1640 media . All media were supplemented with 10% fetal bovine serum, 1% sodium pyruvate, and 1% L-glutamine (Invitrogen, Grand Island, NY). Human umbilical vein endothelial cells (HUVEC) were obtained from Lonza (Allendale, NJ) and maintained in EGM2 media supplemented with EGM-2 SingleQuots (Lonza # CC-4176). All cells were maintained in a humidified incubator (37°C, 5% CO2).
(§2) Cells in 100 µl medium were cultured in a 96-well plate. Cancer cell lines treated with the indicated compounds by adding 50 µl of 3X stocks in duplicate at 10 concentrations. Cells were incubated with compounds for four days, then 30 µl of CellTiter® 96 AQueous One MTS Solution (Promega Cat # G3582) was added to the cells, incubated 1.5 hr at 37°C, then absorbance measured at 490 nm on a Victor plate reader (Perkin Elmer, Waltham, MA). Relative cell viability was determined as a percentage of untreated control wells. IC50 values were calculated using four parameter logistic model #203 with XLfit v4.2 (IDBS, Guildford, Surry, UK).

[1] = tested on: MDA-MB-361 DYT2 (human breast carcinoma MDA-MB-361); details: 96 h, MDA-MB-361 DYT2 cells, incubated four days, read-out: Free Payload Potencies DYT2 (IC50)
Experimental: as §1, §2

[2] = tested on: N87 (human gastric carcinoma derived from metastatic liver site); details: 96 h, N87 cells, incubated four days, read-out: Free Payload Potencies N87 (IC50)
Experimental: as §1, §2

Structure (SMILES)	IC50 (HL60 (leukemia)) [nM]	IC50 [1] [nM]	IC50 [2] [nM]
CC(=O)Oc1cc2c(c3c(C)csc13)[C@H](CCl)CN2C(=O)CCCC(=O)N1C[C@@H](CCl)c2c1cc(OC(C)=O)c1scc(C)c21 [Compound 24, (8S,8'S)-glutaroylbis(8-(chloromethyl)-1-methyl-7,8-dihydro-6H-thieno[3,2-e]indole-6,4-diyl) diacetate]	< 0.005	0.171	0.024
CC(=O)Oc1cc2c(c3c(C)csc13)[C@@H](CCl)CN2C(=O)CCCC(=O)N1C[C@H](CCl)c2c1cc(OC(C)=O)c1scc(C)c21 [Compound 25, (8R,8'R)-glutaroylbis(8-(chloromethyl)-1-methyl-7,8-dihydro-6H-thieno[3,2-e]indole-6,4-diyl) diacetate]		> 100	41.6
Cc1csc2c(O)cc3c(c12)[C@H](CCl)CN3C(=O)CCCC(=O)N1C[C@@H](CCl)c2c1cc(OP(=O)(O)O)c1scc(C)c21 [Compound 61, (8S)-8-(chloromethyl)-6-{5-[(8S)-8-(chloromethyl)-4-hydroxy-1-methyl-7,8-dihydro-6H-thieno[3,2-e]indol-6-yl]-5-oxopentanoyl}-1-methyl-7,8-dihydro-6H-thieno[3,2-e]indol-4-yl dihydrogen phosphate]	0.806	28.6	13.6
CC(=O)Oc1cc2c(c3sc(C)cc13)[C@H](CCl)CN2C(=O)C12CC(C(=O)N3C[C@@H](CCl)c4c3cc(OC(C)=O)c3cc(C)sc43)(C1)C2 [Compound 17, bicyclo[1.1.1]pentane-1,3-diylbis[carbonyl(8S)-8-(chloromethyl)-2-methyl-7,8-dihydro-6H-thieno[2,3-e]indole-6,4-diyl] diacetate]	0.084	6.06	1.3
CC(=O)Oc1cc2c(c3c(C)csc13)[C@H](CCl)CN2C(=O)C12CC(C(=O)N3C[C@@H](CCl)c4c3cc(OC(C)=O)c3scc(C)c43)(C1)C2 [Compound 7, (8S,8'S)-(bicyclo[1.1.1]pentane-1,3-dicarbonyl)bis(8-(chloromethyl)-1-methyl-7,8-dihydro-6H-thieno[3,2-e]indole-6,4-diyl) diacetate]	< 0.005	0.185	0.022
CC(=O)Oc1cc2c(c3c(C)csc13)[C@@H](CCl)CN2C(=O)C12CC(C(=O)N3C[C@H](CCl)c4c3cc(OC(C)=O)c3scc(C)c43)(C1)C2 [Compound 12, (8R,8'R)-(bicyclo[1.1.1]pentane-1,3-dicarbonyl)bis(8-(chloromethyl)-1-methyl-7,8-dihydro-6H-thieno[3,2-e]indole-6,4-diyl) diacetate]	0.18	5.08	2.26
Cc1csc2c(O)cc3c(c12)[C@H](CCl)CN3C(=O)CCCC(=O)N1C[C@@H](CCl)c2c1cc(O[C@@H]1O[C@H](C(=O)O)[C@@H](O)[C@H](O)[C@H]1O)c1scc(C)c21 [Compound 57, (8S)-8-(chloromethyl)-6-{5-[(8S)-8-(chloromethyl)-4-hydroxy-1-methyl-7,8-dihydro-6H-thieno[3,2-e]indol-6-yl]-5-oxopentanoyl}-1-methyl-7,8-dihydro-6H-thieno[3,2-e]indol-4-yl beta-D-glucopyranosiduronic acid]	0.873	37.6	11
